Test results taken from article PMC10835127, “Viruses traverse the human proteome through peptide interfaces that can be biomimetically leveraged for drug discovery” (Proceedings of the National Academy of Sciences of the …, 2024).

Legend:
[1] = in vivo; conditions: male, CD1, mouse, 20 mg/kg, 20 mg/kg per os
[2] = Cryopreserved hepatocyte stability, mouse; assay type: in vitro ADME; conditions: cryopreserved hepatocytes, murine hepatocytes, read-out: CLint mHep
Method: (§1) Cryopreserved hepatocyte stability
(§2) Tested compounds (1 μM) were incubated with human cryopreserved hepatocytes (pool of 5) (IVT Celsis) and mouse cryopreserved hepatocytes (IVT Celsis). Hepatocytes (1, 0.5 or 0.25 x10^6 cells/mL, Williams’ Medium E (WME) with 4 mM L-glutamine and 2 mM magnesium sulphate) containing tested compound (final substrate concentration 1 μM; final DMSO concentration 0.25 %) were preincubated at 37 °C. The final incubation volume was 500 μl. 3 species-specific control compounds were included with each species. At 7 time points (0, 10, 20, 40, 60, 90, and 120 min), reactions were stopped by transferring 50 μl of the incubation mixture into 0.5 μM carbamazepine in cold acetonitrile. Tested compound concentrations were analyzed by LC-MS/MS and the resulting data were used to determine the half-life and intrinsic clearance of the compound in each species. […]

[3] = Microsomal stability, mouse liver microsomes; assay type: in vitro ADME; conditions: male, CD-1, mouse, pH 7.4; murine liver microsomes; read-out: CLint mLM
Method: Tested compounds (1 μM) were incubated with pooled human liver microsomes (Xenotech; pooled male and female) and pooled mouse liver microsomes (Xenotech; male CD-1 mice).
Microsomes (final protein concentrations of 0.25 and 0.5 mg/ml, 0.1 M phosphate buffer pH 7.4) containing tested compound (final substrate concentration 1 μM; final DMSO concentration 0.25 %) were preincubated at 37 °C prior to the addition of NADPH (final concentration 1 mM) to initiate the reaction. The final incubation volume was 200 μl. 3 species-specific control compounds were included with each species. At 5 time points (0, 5, 10, 20, and 40 min), reactions were stopped by transferring 50 μl of the incubation mixture into 0.5 μM carbamazepine in acetonitrile. Tested compound concentrations were analyzed by LC-MS/MS and the resulting data were used to determine the half-life and intrinsic clearance of the compound in each

[4] = Cryopreserved hepatocyte stability, human; assay type: in vitro ADME; conditions: cryopreserved hepatocytes, read-out: CLint hHep
Method: as §1, §2

[5] = PK parameters in mice; assay type: in vivo, male Swiss (CD-1) mice; conditions: mouse
Method: PK parameters and tissue distribution in mice
The pharmacokinetic profiles of the tested compounds were evaluated in male Swiss (CD-1) mice around 5-6 weeks old (3 animals per sampling time). […]
0.2 % Tween 80 in water. Blood samples were collected (0.25 mL) from the sinus retro-orbital […]
24 hr for p.o. route. The blood samples were immediately centrifuged at 2500 rpm at +4 °C, and the plasma was stored at −80 °C. 50 μL of plasma sample was taken and 150 μL of acetonitrile was added. After protein precipitation, analysis of the molecule was performed using LC-MS/MS to determine plasma compound concentration. For liver and lung collection, 3 animals per group were involved and sampled after 2 hr and 24 hr upon 20 mg/kg p.o. administration. Animals were perfused with around 10 mL of saline solution directly into the heart to extract the maximal blood sample from the liver and the lung. Animals were then sacrificed by cervical dislocation and liver

O=C(Nc1scc(C2CCc3ccccc3C2)c1C(=O)O)c1ccccc1 (stereo not shown) [dEF3122]
Kp ([1]; Liver:Plasma Ratio, 2 h): 0.45 | Kp ([1]; Liver:Plasma Ratio, 24 h): 0.88 | Kp ([1]; Lung:Plasma Ratio, 2 h): 0.12 | Kp ([1]; Lung:Plasma Ratio, 24 h): 0.13 | hepatocyte CLint at 1 µM [2]: < 5 µL/min/1e6 cells | microsomal CLint at 1 µM [3]: 24 µL/min/mg | hepatocyte CLint at 1 µM [4]: 19 µL/min/1e6 cells | Cmax ([5]; male, Swiss (CD-1), plasma, po 2 mg/kg (dose for AUC)): 1600 ng/mL | bioavailability ([5]; male, Swiss (CD-1), plasma, po 2 mg/kg, iv 0.25 mg/kg): 36% | plasma concentration reached after oral administration, molar equivalent ([5]; po 2 mg/kg): 2600 nM
